Measurements as given in US12471596B2 (priority 2019, dated 2025).

Test system: Phytophthora infestans
Experiment: microbe, parasite or virus in culture
Assay type: cell-based
Settings: in Secale cereale, 168 h, read-out: control compared to the untreated check

Structure (SMILES) | inhibition of growth at 30 ppm [%]
O=C(COc1cc(C(F)(F)F)ncn1)N1CCC(c2nc(C3=NOC(c4c(Cl)cccc4C(F)(F)F)C3)cs2)CC1 (stereo not drawn) [Compound 10, 1-(4-(4-(5-(2-chloro-6-(trifluoromethyl)phenyl)-4,5-dihydroisoxazol-3-yl)thiazol-2-yl)piperidin-1-yl)-2-((6-(trifluoromethyl)pyrimidin-4-yl)oxy)ethan-1-one] | ≥ 70
O=C(COc1cc(C(F)(F)F)ncn1)N1CCC(c2nc(C3=NOC(c4c(Cl)cc(Cl)cc4Cl)C3)cs2)CC1 (stereo not drawn) [Compound 11, 1-(4-(4-(5-(2,4,6-trichlorophenyl)-4,5-dihydroisoxazol-3-yl)thiazol-2-yl)piperidin-1-yl)-2-((6-(trifluoromethyl)pyrimidin-4-yl)oxy)ethan-1-one] | ≥ 70
O=C(COc1cc(C(F)(F)F)ncn1)N1CCC(c2nc(C3=NOC(c4c(F)cccc4F)C3)cs2)CC1 (stereo not drawn) [Compound 12, 1-(4-(4-(5-(2,6-difluorophenyl)-4,5-dihydroisoxazol-3-yl)thiazol-2-yl)piperidin-1-yl)-2-((6-(trifluoromethyl)pyrimidin-4-yl)oxy)ethan-1-one] | ≥ 70
O=C(COc1ccnc(C(F)(F)F)n1)N1CCC(c2nc(C3=NOC(c4c(Cl)cc(Cl)cc4Cl)C3)cs2)CC1 (stereo not drawn) [Compound 19, 1-(4-(4-(5-(2,4,6-trichlorophenyl)-4,5-dihydroisoxazol-3-yl)thiazol-2-yl)piperidin-1-yl)-2-((2-(trifluoromethyl)pyrimidin-4-yl)oxy)ethan-1-one] | ≥ 70
O=C(COc1ccnc(C(F)(F)F)n1)N1CCC(c2nc(C3=NOC(c4c(F)cccc4Cl)C3)cs2)CC1 (stereo not drawn) [Compound 20, 1-(4-(4-(5-(2-chloro-6-fluorophenyl)-4,5-dihydroisoxazol-3-yl)thiazol-2-yl)piperidin-1-yl)-2-((2-(trifluoromethyl)pyrimidin-4-yl)oxy)ethan-1-one] | ≥ 70
CS(=O)(=O)Oc1cccc(Cl)c1C1CC(c2csc(C3CCN(C(=O)COc4ccnc(C(F)(F)F)n4)CC3)n2)=NO1 (stereo not drawn) [Compound 21, 3-chloro-2-(3-(2-(1-(2-((2-(trifluoromethyl)pyrimidin-4-yl)oxy)acetyl)piperidin-4-yl)thiazol-4-yl)-4,5-dihydroisoxazol-5-yl)phenyl methanesulfonate] | ≥ 70
COc1nccnc1OCC(=O)N1CCC(c2nc(C3=NOC(c4c(Cl)cc(Cl)cc4Cl)C3)cs2)CC1 (stereo not drawn) [Compound 24, 2-((3-methoxypyrazin-2-yl)oxy)-1-(4-(4-(5-(2,4,6-trichlorophenyl)-4,5-dihydroisoxazol-3-yl)thiazol-2-yl)piperidin-1-yl)ethan-1-one] | ≥ 70
COc1nccnc1OCC(=O)N1CCC(c2nc(C3=NOC(c4c(Cl)cccc4Cl)C3)cs2)CC1 (stereo not drawn) [Compound 30, 1-(4-(4-(5-(2,6-dichlorophenyl)-4,5-dihydroisoxazol-3-yl)thiazol-2-yl)piperidin-1-yl)-2-((3-methoxypyrazin-2-yl)oxy)ethan-1-one] | ≥ 70
COc1ccnc(OCC(=O)N2CCC(c3nc(C4=NOC(c5c(F)cccc5Br)C4)cs3)CC2)n1 (stereo not drawn) [Compound 44, 1-(4-(4-(5-(2-bromo-6-fluorophenyl)-4,5-dihydroisoxazol-3-yl)thiazol-2-yl)piperidin-1-yl)-2-((4-methoxypyrimidin-2-yl)oxy)ethan-1-one] | ≥ 70
N#Cc1cccc(Cl)c1C1CC(c2csc(C3CCN(C(=O)COc4nccc(C(F)(F)F)n4)CC3)n2)=NO1 (stereo not drawn) [Compound 45, 3-chloro-2-(3-(2-(1-(2-((4-(trifluoromethyl)pyrimidin-2-yl)oxy)acetyl)piperidin-4-yl)thiazol-4-yl)-4,5-dihydroisoxazol-5-yl)benzonitrile] | ≥ 70
CS(=O)(=O)Oc1cccc(Cl)c1C1CC(c2csc(C3CCN(C(=O)COc4nccc(C(F)(F)F)n4)CC3)n2)=NO1 (stereo not drawn) [Compound 46, 3-chloro-2-(3-(2-(1-(2-((4-(trifluoromethyl)pyrimidin-2-yl)oxy)acetyl)piperidin-4-yl)thiazol-4-yl)-4,5-dihydroisoxazol-5-yl)phenyl methanesulfonate] | ≥ 70
O=C(COc1nccc(C(F)(F)F)n1)N1CCC(c2nc(C3=NOC(c4c(Cl)cccc4Cl)C3)cs2)CC1 (stereo not drawn) [Compound 47, 1-(4-(4-(5-(2,6-dichlorophenyl)-4,5-dihydroisoxazol-3-yl)thiazol-2-yl)piperidin-1-yl)-2-((4-(trifluoromethyl)pyrimidin-2-yl)oxy)ethan-1-one] | ≥ 70
O=C(COc1nccc(C(F)(F)F)n1)N1CCC(c2nc(C3=NOC(c4c(F)cccc4Cl)C3)cs2)CC1 (stereo not drawn) [Compound 48, 1-(4-(4-(5-(2-chloro-6-fluorophenyl)-4,5-dihydroisoxazol-3-yl)thiazol-2-yl)piperidin-1-yl)-2-((4-(trifluoromethyl)pyrimidin-2-yl)oxy)ethan-1-one] | ≥ 70
O=C(COc1nccc(C(F)(F)F)n1)N1CCC(c2nc(C3=NOC(c4c(Cl)cc(Cl)cc4Cl)C3)cs2)CC1 (stereo not drawn) [Compound 49, 1-(4-(4-(5-(2,4,6-trichlorophenyl)-4,5-dihydroisoxazol-3-yl)thiazol-2-yl)piperidin-1-yl)-2-((4-(trifluoromethyl)pyrimidin-2-yl)oxy)ethan-1-one] | ≥ 70
O=C(COc1nccc(C(F)(F)F)n1)N1CCC(c2nc(C3=NOC(c4c(F)cccc4F)C3)cs2)CC1 (stereo not drawn) [Compound 50, 1-(4-(4-(5-(2,6-difluorophenyl)-4,5-dihydroisoxazol-3-yl)thiazol-2-yl)piperidin-1-yl)-2-((4-(trifluoromethyl)pyrimidin-2-yl)oxy)ethan-1-one] | ≥ 70
O=C(COc1nccc(C(F)(F)F)n1)N1CCC(c2nc(C3=NOC(c4c(F)cccc4Br)C3)cs2)CC1 (stereo not drawn) [Compound 52, 1-(4-(4-(5-(2-bromo-6-fluorophenyl)-4,5-dihydroisoxazol-3-yl)thiazol-2-yl)piperidin-1-yl)-2-((4-(trifluoromethyl)pyrimidin-2-yl)oxy)ethan-1-one] | ≥ 70
O=C(COc1cncc(C(F)(F)F)n1)N1CCC(c2nc(C3=NOC(c4c(F)cccc4Cl)C3)cs2)CC1 (stereo not drawn) [Compound 53, 1-(4-(4-(5-(2-chloro-6-fluorophenyl)-4,5-dihydroisoxazol-3-yl)thiazol-2-yl)piperidin-1-yl)-2-((6-(trifluoromethyl)pyrazin-2-yl)oxy)ethan-1-one] | ≥ 70
O=C(COc1cncc(C(F)(F)F)n1)N1CCC(c2nc(C3=NOC(c4c(Cl)cccc4Cl)C3)cs2)CC1 (stereo not drawn) [Compound 55, 1-(4-(4-(5-(2,6-dichlorophenyl)-4,5-dihydroisoxazol-3-yl)thiazol-2-yl)piperidin-1-yl)-2-((6-(trifluoromethyl)pyrazin-2-yl)oxy)ethan-1-one] | ≥ 70
N#Cc1cccc(Cl)c1C1CC(c2csc(C3CCN(C(=O)COc4cncc(C(F)(F)F)n4)CC3)n2)=NO1 (stereo not drawn) [Compound 56, 3-chloro-2-(3-(2-(1-(2-((6-(trifluoromethyl)pyrazin-2-yl)oxy)acetyl)piperidin-4-yl)thiazol-4-yl)-4,5-dihydroisoxazol-5-yl)benzonitrile] | ≥ 70
CS(=O)(=O)Oc1cccc(Cl)c1C1CC(c2csc(C3CCN(C(=O)COc4cncc(C(F)(F)F)n4)CC3)n2)=NO1 (stereo not drawn) [Compound 57, 3-chloro-2-(3-(2-(1-(2-((6-(trifluoromethyl)pyrazin-2-yl)oxy)acetyl)piperidin-4-yl)thiazol-4-yl)-4,5-dihydroisoxazol-5-yl)phenyl methanesulfonate] | ≥ 70
O=C(COc1cncc(C(F)(F)F)n1)N1CCC(c2nc(C3=NOC(c4c(F)cccc4F)C3)cs2)CC1 (stereo not drawn) [Compound 58, 1-(4-(4-(5-(2,6-difluorophenyl)-4,5-dihydroisoxazol-3-yl)thiazol-2-yl)piperidin-1-yl)-2-((6-(trifluoromethyl)pyrazin-2-yl)oxy)ethan-1-one] | ≥ 70
O=C(COc1cncc(C(F)(F)F)n1)N1CCC(c2nc(C3=NOC(c4c(F)cccc4Br)C3)cs2)CC1 (stereo not drawn) [Compound 59, 1-(4-(4-(5-(2-bromo-6-fluorophenyl)-4,5-dihydroisoxazol-3-yl)thiazol-2-yl)piperidin-1-yl)-2-((6-(trifluoromethyl)pyrazin-2-yl)oxy)ethan-1-one] | ≥ 70
O=C(COc1cncc(C(F)(F)F)n1)N1CCC(c2nc(C3=NOC(c4c(Cl)ccc(F)c4F)C3)cs2)CC1 (stereo not drawn) [Compound 61, 1-(4-(4-(5-(6-chloro-2,3-difluorophenyl)-4,5-dihydroisoxazol-3-yl)thiazol-2-yl)piperidin-1-yl)-2-((6-(trifluoromethyl)pyrazin-2-yl)oxy)ethan-1-one] | ≥ 70
COc1ccnc(OCC(=O)N2CCC(c3nc(C4=NOC(c5c(Cl)ccc(F)c5F)C4)cs3)CC2)n1 (stereo not drawn) [Compound 63, 1-(4-(4-(5-(6-chloro-2,3-difluorophenyl)-4,5-dihydroisoxazol-3-yl)thiazol-2-yl)piperidin-1-yl)-2-((4-methoxypyrimidin-2-yl)oxy)ethan-1-one] | ≥ 70
COc1nccnc1OCC(=O)N1CCC(c2nc(C3=NOC(c4c(Cl)cccc4C(F)(F)F)C3)cs2)CC1 (stereo not drawn) [Compound 65, 1-(4-(4-(5-(2-chloro-6-(trifluoromethyl)phenyl)-4,5-dihydroisoxazol-3-yl)thiazol-2-yl)piperidin-1-yl)-2-((3-methoxypyrazin-2-yl)oxy)ethan-1-one] | ≥ 70
O=C(COc1ccc(C(F)(F)F)nn1)N1CCC(c2nc(C3=NOC(c4c(Cl)cccc4C(F)(F)F)C3)cs2)CC1 (stereo not drawn) [Compound 66, 1-(4-(4-(5-(2-chloro-6-(trifluoromethyl)phenyl)-4,5-dihydroisoxazol-3-yl)thiazol-2-yl)piperidin-1-yl)-2-((6-(trifluoromethyl)pyridazin-3-yl)oxy)ethan-1-one] | ≥ 70
O=C(COc1cncc(C(F)(F)F)n1)N1CCC(c2nc(C3=NOC(c4c(Cl)cccc4C(F)(F)F)C3)cs2)CC1 (stereo not drawn) [Compound 68, 1-(4-(4-(5-(2-chloro-6-(trifluoromethyl)phenyl)-4,5-dihydroisoxazol-3-yl)thiazol-2-yl)piperidin-1-yl)-2-((6-(trifluoromethyl)pyrazin-2-yl)oxy)ethan-1-one] | ≥ 70
